Reference: patent US5817670A, “Naphthyridine derivatives and pharmaceutical compositions thereof” (Yamanouchi Pharmaceutical Co., Ltd., priority 1994, dated 1998)
Structures can show the parent of a compound that is named as a salt.

Assays:
[1] = molecular target: type I phosphodiesterase; test: Phosphodiesterase inhibition activity (in vitro), Type I; format: biochemical, rat
Excerpt: (§1) (A) In order to evaluate selectivity of the compounds of the present invention for type IV phosphodiesterase, types I, II, III and V phosphodiesterase isozymes were purified in the following manner.
(§2) 1) Solutions containing various phosphodiesterase (types I, II and III) isozymes were purified from rat heart muscle cells in the following manner. Under ether anesthesia, Wistar rat was subjected to thoracotomy to excise the heart. After removing blood by perfusion with physiological saline supplemented with heparin (1 unit/ml), the heart was finely chopped with scissors. This was suspended in buffer A (20 mM Bis-Tris, 5 mM dithioerythritol, 2 mM EGTA and 50 mM sodium acetate, pH 6.5) containing a protease inhibitor (50 μM phenyl-methyl-sulfonyl-fluoride, 5 μM pepstatin A, 40 μM leupeptin, 20 μM aprotinin or 2 mM benzamidine) and then the cells were disrupted using polytron and sonicator and subjected to ultracentrifugation (4° C., 100,000×g, 60 minutes) to give a soluble fraction.
(§3) 2) Solutions containing various phosphodiesterase isozymes were obtained from the thus obtained soluble fraction in the following manner. The thus, obtained soluble fraction was applied to a column of 1.6×10.0 cm packed with Q Sepharose which had been equilibrated with buffer A. Next, said column was washed with 300 ml of buffer A to remove non-absorbed protein. Phosphodiesterase was eluted with 200 ml of buffer A having 0.05 to 1.25M linear gradient of sodium acetate to collect about 40 fractions each containing 5.0 ml eluate. Each fraction was checked for cAMP- and cGMP-metabolizing phosphodiesterase activities. Of these fractions, a fraction having only cAMP-metabolizing activity and showing disappearance of the metabolizing activity by 0.1 μM cilostamide (a type III phosphodiesterase selective inhibitor) was used as the type III phosphodiesterase. […] These fractions were separately collected to be used as phosphodiesterase (types I, II and III) stock solutions for the examination of selectivity. p1 3) A solution containing type V phosphodiesterase was prepared from peripheral blood of a healthy person in the following manner. A 200 ml portion of physiological saline supplemented with dextran (3%) was added to 500 ml of heparinized peripheral blood and incubated at 37° C. for 40 minutes to effect precipitation of erythrocytes. The supernatant fluid after precipitation of erythrocytes was recovered and centrifuged once, and the resulting precipitate was suspended in buffer B (140 mM NaCl, 5 mM KCl, 5 mm glucose and 10 mM HEPES, pH 7.4), overlaid on a solution for density gradient centrifugation use (Ficoll solution) and then centrifuged at room temperature for 40 minutes at 450×g, thereby separating monocyte fraction and granulocyte fraction. The granulocyte fraction was washed once with buffer C (140 mM NaCl, 5 mM KCl, 1 mM CaCl2, 1 mM MgCl2, 5 mM glucose and 10 mM HEPES, pH 7.4) and suspended in buffer D (20 mM Bis-Tris, 5 mM dithioerythritol, 2 mM EGTA and 50 mM sodium acetate, pH 6.5) containing a protease inhibitor (40 μM leupeptin, 5 μM pepstatin A, 20 μM aprotinin, 50 μM phenyl-methyl-sulfonyl-fluoride or 2 mM benzamidine) and then the cells were disrupted using polytron and sonicator and subjected to ultracentrifugation (4° C., 100,000×g, 60 minutes) to give a soluble fraction.
(§4) (B) Inhibitory activities were measured using the thus obtained stock solutions of various phosphodiesterase isozymes.
(§5) 1) A predetermined amount of each compound to be tested was subjected to 10 minutes of reaction at 30° C. in a reaction mixture containing 40 mM Tris-HCl (pH 8.0), 5 mM MgCl2, 4 mM 2-mercaptoethanol, 10 μM rolipram (a type IV phosphodiesterase selective inhibitor), 1 μM cAMP, 10 nM ^3 H-cAMP (in the case of type V phosphodiesterase, 1 μM cAMP and 10 nM ^3 H-cAMP are replaced by 1 μM cGMP and 100 nM ^3 H-cGMP) and each of the isozyme stock solutions. […]

[2] = molecular target: type III phosphodiesterase; test: Phosphodiesterase inhibition activity (in vitro), Type III; format: biochemical, rat
Excerpt: as §1, §2, §3, §4, §5

[3] = molecular target: type IV phosphodiesterase; test: Phosphodiesterase inhibition activity (in vitro), Type IV; format: biochemical, human (peripheral blood of a healthy person)
Experimental: (1) Method for measuring type IV phosphodiesterase inhibition activity
The following assay was used for the evaluation of the capability of the compounds of the present invention to inhibit type IV phosphodiesterase.
1) Physiological saline (200 ml) supplemented with dextran (3%) was added to 500 ml of heparinized peripheral blood of a healthy person and incubated at 37° C. for 40 minutes to effect precipitation of erythrocytes. The supernatant after precipitation of erythrocytes was recovered and centrifuged once, and the resulting precipitate was suspended in buffer A (140 mM NaCl, 5 mM KCl, 5 mM glucose and 10 mM HEPES, pH 7.4), overlaid on a solution for density gradient centrifugation use (Ficoll solution) and then centrifuged at room temperature for 40 minutes at 450×g, thereby separating monocyte fraction and granulocyte fraction. The granulocyte fraction was washed once with buffer B (140 mM NaCl, 5 mM KCl, 1 mM CaCl2, 1 mM MgCl2, 5 mM glucose and 10 mM HEPES, pH 7.4) and suspended in buffer C (20 mM Bis-Tris, 5 mM dithioerythritol, 2 mM EGTA and 50 mM sodium acetate, pH 6.5) containing a protease inhibitor (50 μM phenyl-methyl-sulfonyl-fluoride, 5 μM pepstatin A, 40 μM leupeptin, 20 μM aprotinin or 2 mM benzamidine) and then the cells were disrupted using polytron and sonicator and subjected to ultracentrifugation (4° C., 100,000×g, 60 minutes) to give a soluble fraction.
2) The thus obtained soluble fraction was applied to a column of 1.6×10 cm packed with Q Sepharose which had been equilibrated with buffer C. Next, the column was washed with 300 ml of buffer C to remove non-absorbed protein. Phosphodiesterase was eluted with 200 ml of buffer C having 0.05 to 1.25M linear gradient of sodium acetate to collect 40 fractions each containing 5.0 ml eluate. Each fraction was checked for cAMP- and cGMP-metabolizing phosphodiesterase activities. Fractions having no cGMP- but cAMP-metabolizing activity and showing disappearance of the metabolizing activity by 10 μM rolipram (a type IV phosphodiesterase selective inhibitor) were collected to be used as a stock solution for the examination of type IV phosphodiesterase inhibition activity.
3) A predetermined amount of each compound to be tested was subjected to 10 minutes of reaction at 30° C. in a reaction mixture containing 40 mM Tris-HCl (pH 8.0), 5 mM MgCl2, 4 mM 2-mercaptoethanol, 0.3 μM cilostamide (a type III phosphodiesterase selective inhibitor), 1 μM cAMP, 10 nM ^3 H-cAMP and the type IV phosphodiesterase stock solution. The reaction solution was boiled at 90° C. for 1 minute, ice-cooled, mixed with 1 unit of 5'-nucleotidase and then subjected to 10 minutes of reaction at 30° C., and the reaction was stopped by the addition of 1 ml of methanol. The reaction solution was passed through a Dowex 1×8 column to adsorb un-hydrolyzed material and then the radioactivity was measured.
4) Concentration of each compound to be tested which inhibits 50% of the metabolic activity of type IV phosphodiesterase was calculated and expressed as IC50. (2) Method for measuring the activity to inhibit various phosphodiesterase isozymes
Results: The inhibition activity (IC50) value for h type of phosphodiesterase (Type I, Type II, Type III, e IV, and Type V) is shown in the following table.

Compound	IC50 [1]	IC50 [2]	IC50 [3]
CCc1cc(C)c2c(-c3cccc(Cl)c3)cc(=O)n(C)c2n1 [Example 27, 4-(3-Chlorophenyl)-7-ethyl-1,5-dimethyl-1,8-naphthyridin-2(1H)-one]	0.0213 µM	15.5 µM	> 30 µM
CCc1cc(C)c2c(-c3ccccc3)cc(=O)n(CC)c2n1 [Example 40, 1,7-Diethyl-5-methyl-4-phenyl-1,8-naphthyridin-2(1H)-one]	0.0129 µM	32.3 µM	31.9 µM
Cc1cc(C)c2c(-c3cccc(Cl)c3)cc(=O)n(C)c2n1 [Example 24, 4-(3-chlorophenyl)-1,5,7-trimethyl-1,8-naphthyridin-2(1H)-one]	0.0419 µM	21.5 µM	98.3 µM
CCc1cc(C)c2c(-c3cccc(Br)c3)cc(=O)n(CC)c2n1 [Example 31, 4-(3-bromophenyl)-1,7-diethyl-5-methyl-1,8-naphthyridin-2(1H)-one]	0.0043 µM	> 30 µM	> 30 µM
CCn1c(=O)cc(-c2cccc(Cl)c2)c2c(C)cc(C)nc21 [Example 29, 4-(3-Chlorophenyl)-1-ethyl-5,7-dimethyl-1,8-naphthyridin-2(1H)-one]	0.0116 µM	14.3 µM	> 30 µM
CCn1c(=O)cc(-c2ccccc2)c2c(C)cc(C)nc21 [Example 38, 1-Ethyl-5,7-dimethyl-4-phenyl-1,8-naphthyridin-2(1H)-one]	0.0124 µM	> 30 µM	> 30 µM
CCCn1c(=O)cc(-c2cccc(Br)c2)c2c(C)cc(CC)nc21 [Example 33, 4-(3-Bromophenyl)-7-ethyl-5-methyl-1-propyl-1,8-naphthyridin-2(1H)-one]	0.0143 µM	17.7 µM	> 30 µM
CCc1cc(C)c2c(C3CCCCC3)cc(=O)n(CC)c2n1 [Example 49, 4-cyclohexyl-1,7-diethyl-5-methyl-1,8-naphthyridin-2(1H)-one]	0.0337 µM	27.3 µM	30.2 µM
CCc1cc(C)c2c(-c3cccc(Cl)c3)cc(=S)n(C)c2n1 [Example 43, 4-(3-chlorophenyl)-7-ethyl-1,5-dimethyl-1,8-naphthyridine-2(1H)-thione]	0.016 µM	> 30 µM	> 30 µM
CCn1c(=O)cc(C2CCCCC2)c2cccnc21 [Example 46, 4-cyclohexyl-1-ethyl-1,8-naphthyridin-2(1H)-one 0.45 hydrochloride 0.25 hydrate]	0.0389 µM	> 30 µM	> 30 µM
CCn1c(=O)cc(-c2cccc(Cl)c2)c2cccnc21 [Example 15, 4-(3-Chlorophenyl)-1-ethyl-1,8-naphthyridin-2(1H)-one]	0.0338 µM	50.3 µM	58.9 µM
CCn1c(=O)cc(-c2cccc(Br)c2)c2c(C)cc(C)nc21 [Example 30, 4-(3-Bromophenyl)-1-ethyl-5,7-dimethyl-1,8-naphthyridin-2(1H)-one]	0.0099 µM	10.9 µM	31.2 µM
CCc1cc(C)c2c(-c3cccc(Cl)c3)cc(=O)n(C3CC3)c2n1 [Example 35, 4-(3-Chlorophenyl)-1-cyclopropyl-7-ethyl-5-methyl-1,8-naphthyridin-2(1H)-on]	0.0242 µM	34.4 µM	21.9 µM
CCc1cc(C)c2c(-c3ccccc3)cc(=O)n(C)c2n1 [Example 26, 7-Ethyl-1,5-dimethyl-4-phenyl-1,8-naphthyridin-2(1H)-one]	0.0234 µM	56.2 µM	84.9 µM
